Experimental findings from ChEMBL document CHEMBL5113550, “Optimization of Pyrimidine Compounds as Potent JAK1 Inhibitors and the Discovery of R507 as a Clinical Candidate” (ACS Med Chem Lett, 2022) are described below.

For series [1], the target named is T1, JAK3/JAK1 (Homo sapiens, UniProt P23458+P52333). Kind of series: Inhibition of JAK1/JAK3 in human primary T-cells assessed as reduction of IL-2 stimulated STAT5 phosphorylation preincubated for 1 hr followed by IL-2 stimulation for 15 mins by FACS method. Format: cell-based, T-cell. Background: In flow cytometry, cells or beads pass a laser one at a time.
T1 sequence (P23458 whole entry, one chain of several): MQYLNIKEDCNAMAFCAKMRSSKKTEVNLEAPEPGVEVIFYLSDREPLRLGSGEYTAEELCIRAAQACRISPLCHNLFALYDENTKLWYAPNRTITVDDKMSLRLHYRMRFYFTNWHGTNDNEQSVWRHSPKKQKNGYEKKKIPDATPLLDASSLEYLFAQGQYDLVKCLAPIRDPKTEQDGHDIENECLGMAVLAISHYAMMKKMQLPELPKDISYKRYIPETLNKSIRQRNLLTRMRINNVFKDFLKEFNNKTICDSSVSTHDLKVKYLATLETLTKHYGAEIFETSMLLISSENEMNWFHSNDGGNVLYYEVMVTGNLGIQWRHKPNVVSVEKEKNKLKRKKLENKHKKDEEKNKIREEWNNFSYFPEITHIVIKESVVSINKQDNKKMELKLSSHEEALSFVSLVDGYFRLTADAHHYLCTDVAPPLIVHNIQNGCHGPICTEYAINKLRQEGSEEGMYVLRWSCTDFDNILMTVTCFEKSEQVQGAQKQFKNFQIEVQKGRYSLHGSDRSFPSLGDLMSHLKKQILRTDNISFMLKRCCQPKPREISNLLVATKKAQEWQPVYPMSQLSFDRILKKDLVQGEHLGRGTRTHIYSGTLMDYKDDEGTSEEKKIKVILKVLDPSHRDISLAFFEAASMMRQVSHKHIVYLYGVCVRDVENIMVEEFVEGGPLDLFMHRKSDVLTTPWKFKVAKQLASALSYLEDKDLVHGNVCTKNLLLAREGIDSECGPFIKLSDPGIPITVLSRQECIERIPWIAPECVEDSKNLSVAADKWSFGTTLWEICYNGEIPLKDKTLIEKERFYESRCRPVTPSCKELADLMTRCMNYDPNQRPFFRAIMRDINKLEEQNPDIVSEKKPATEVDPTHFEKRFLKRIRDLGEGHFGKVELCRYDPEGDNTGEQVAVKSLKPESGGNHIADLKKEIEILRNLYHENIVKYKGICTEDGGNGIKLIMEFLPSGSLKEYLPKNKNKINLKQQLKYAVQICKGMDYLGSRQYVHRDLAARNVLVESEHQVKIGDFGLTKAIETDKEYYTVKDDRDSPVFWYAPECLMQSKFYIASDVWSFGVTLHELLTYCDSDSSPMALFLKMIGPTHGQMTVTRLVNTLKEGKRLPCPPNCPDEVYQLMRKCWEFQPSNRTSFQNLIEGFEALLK
Series [2] in a line: Inhibition of IL-2 stimulated IFN-gamma production in BALB/c mouse at 40 mg/kg, po pretreated for 30 mins followed by IL-2 stimulation and measured after 4 hrs by ELISA. The note with it: time 4.5 hrs. It counts as functional.
For series [3], the target named is T2, Tyrosine-protein kinase JAK2 (Homo sapiens, UniProt O60674). Kind of series: Inhibition of JAK2 signaling pathway in human CHEP cells assessed as inhibition of EPO-induced cell survival preincubated for 1 hr followed by EPO addition and measured after 48 hrs by CellTiter-Glo luminescent assay. It counts as toxicity, cell-based. On the technique in general: In ATP-based viability assays light output follows the ATP content of the culture.
T2 sequence (O60674 whole entry): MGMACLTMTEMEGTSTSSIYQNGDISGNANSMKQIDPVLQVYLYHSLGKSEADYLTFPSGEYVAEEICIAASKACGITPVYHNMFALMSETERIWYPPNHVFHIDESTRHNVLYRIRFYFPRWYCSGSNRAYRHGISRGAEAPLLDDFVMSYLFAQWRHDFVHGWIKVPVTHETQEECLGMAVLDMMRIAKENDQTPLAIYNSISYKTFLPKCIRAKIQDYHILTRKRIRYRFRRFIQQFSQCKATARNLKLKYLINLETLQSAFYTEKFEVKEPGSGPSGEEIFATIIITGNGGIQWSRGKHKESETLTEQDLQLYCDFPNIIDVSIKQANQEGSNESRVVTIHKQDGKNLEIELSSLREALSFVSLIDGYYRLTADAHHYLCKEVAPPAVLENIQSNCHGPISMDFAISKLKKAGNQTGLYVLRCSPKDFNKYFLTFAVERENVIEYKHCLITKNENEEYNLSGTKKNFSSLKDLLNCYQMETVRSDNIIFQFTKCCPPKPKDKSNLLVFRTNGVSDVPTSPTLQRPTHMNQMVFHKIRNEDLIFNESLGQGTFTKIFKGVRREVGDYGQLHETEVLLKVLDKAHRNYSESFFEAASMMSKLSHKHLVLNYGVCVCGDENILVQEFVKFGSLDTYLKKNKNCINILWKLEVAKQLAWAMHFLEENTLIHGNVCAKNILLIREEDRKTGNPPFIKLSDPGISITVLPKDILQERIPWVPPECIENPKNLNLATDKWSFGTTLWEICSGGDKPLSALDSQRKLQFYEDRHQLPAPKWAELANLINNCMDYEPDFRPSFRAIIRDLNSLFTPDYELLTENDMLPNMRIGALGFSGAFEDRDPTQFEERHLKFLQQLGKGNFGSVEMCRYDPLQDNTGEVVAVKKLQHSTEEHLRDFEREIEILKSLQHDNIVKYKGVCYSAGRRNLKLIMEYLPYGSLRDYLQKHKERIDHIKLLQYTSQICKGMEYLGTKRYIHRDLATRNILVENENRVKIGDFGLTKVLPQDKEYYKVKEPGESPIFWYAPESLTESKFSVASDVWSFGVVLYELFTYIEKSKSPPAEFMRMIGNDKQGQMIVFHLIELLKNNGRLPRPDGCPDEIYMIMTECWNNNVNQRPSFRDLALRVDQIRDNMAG

Series [4] is described as follows: Inhibition of IL-2 stimulated IFN-gamma production in BALB/c mouse at 5 mg/kg, po pretreated for 30 mins followed by IL-2 stimulation and measured after 4 hrs by ELISA. Format: functional. The note with it: time 4.5 hrs. For orientation: ELISA stands for enzyme-linked immunosorbent assay.
For series [5], the target named is T3, Cytochrome P450 3A4 (Homo sapiens, UniProt P08684). The series is described as follows: Inhibition of CYP3A4 (unknown origin) in absence of NADPH. Format: ADME.
T3 sequence (P08684 whole entry): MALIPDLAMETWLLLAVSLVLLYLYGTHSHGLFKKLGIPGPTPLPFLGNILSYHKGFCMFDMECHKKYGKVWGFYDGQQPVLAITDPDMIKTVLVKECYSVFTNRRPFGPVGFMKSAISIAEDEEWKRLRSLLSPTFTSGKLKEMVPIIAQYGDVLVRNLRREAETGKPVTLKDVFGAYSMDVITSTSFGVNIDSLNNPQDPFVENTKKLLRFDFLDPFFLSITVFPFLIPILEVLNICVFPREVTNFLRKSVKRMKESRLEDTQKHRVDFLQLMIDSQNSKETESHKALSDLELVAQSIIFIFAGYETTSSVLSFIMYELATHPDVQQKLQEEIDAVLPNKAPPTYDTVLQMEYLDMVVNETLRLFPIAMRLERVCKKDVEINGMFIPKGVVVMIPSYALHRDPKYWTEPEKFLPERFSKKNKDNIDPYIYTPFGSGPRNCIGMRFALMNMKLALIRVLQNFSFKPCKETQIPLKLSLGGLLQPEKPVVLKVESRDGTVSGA
Series [6] concerns the target T3, Cytochrome P450 3A4. Kind of series: Inhibition of CYP3A4 (unknown origin) in presence of NADPH. It counts as ADME.
The next series has as its target T4, Cytochrome P450 1A2 (Homo sapiens, UniProt P05177).
T4 sequence (P05177 whole entry): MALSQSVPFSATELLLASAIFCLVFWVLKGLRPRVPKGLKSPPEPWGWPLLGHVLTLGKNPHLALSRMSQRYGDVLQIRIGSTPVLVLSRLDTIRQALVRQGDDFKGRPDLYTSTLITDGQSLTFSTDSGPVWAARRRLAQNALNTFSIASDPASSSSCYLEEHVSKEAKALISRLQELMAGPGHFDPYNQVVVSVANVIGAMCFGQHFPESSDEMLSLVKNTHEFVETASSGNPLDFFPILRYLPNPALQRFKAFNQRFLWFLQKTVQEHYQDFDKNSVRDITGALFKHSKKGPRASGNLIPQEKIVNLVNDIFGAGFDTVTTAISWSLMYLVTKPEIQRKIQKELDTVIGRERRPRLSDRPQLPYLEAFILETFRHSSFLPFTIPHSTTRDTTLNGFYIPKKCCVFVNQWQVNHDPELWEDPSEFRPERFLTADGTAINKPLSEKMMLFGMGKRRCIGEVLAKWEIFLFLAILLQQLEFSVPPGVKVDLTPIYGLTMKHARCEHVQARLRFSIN
Kind of series: Inhibition of CYP1A2 (unknown origin). Format: ADME.

The target of series [7] is Tyrosine-protein kinase JAK1 (Homo sapiens, UniProt P23458). The series is described as follows: Inhibition of human recombinant GST-tagged JAK1 catalytic domain (866 to 1154 residues) expressed in baculovirus expression system by Z'-lyte assay.
Tyrosine-protein kinase JAK1, sequence (P23458 whole entry, the tested form may be a part): as the sequence (P23458 whole entry, one chain of several) above
Series [8] has as its target T2, Tyrosine-protein kinase JAK2. The series is described as follows: Inhibition of human recombinant GST-tagged JAK2 catalytic domain (809 to 1153 residues) expressed in baculovirus expression system by Z'-lyte assay. Format: toxicity.
Series [9] has as its target T5, Tyrosine-protein kinase JAK3 (Homo sapiens, UniProt P52333).
T5 sequence (P52333 whole entry): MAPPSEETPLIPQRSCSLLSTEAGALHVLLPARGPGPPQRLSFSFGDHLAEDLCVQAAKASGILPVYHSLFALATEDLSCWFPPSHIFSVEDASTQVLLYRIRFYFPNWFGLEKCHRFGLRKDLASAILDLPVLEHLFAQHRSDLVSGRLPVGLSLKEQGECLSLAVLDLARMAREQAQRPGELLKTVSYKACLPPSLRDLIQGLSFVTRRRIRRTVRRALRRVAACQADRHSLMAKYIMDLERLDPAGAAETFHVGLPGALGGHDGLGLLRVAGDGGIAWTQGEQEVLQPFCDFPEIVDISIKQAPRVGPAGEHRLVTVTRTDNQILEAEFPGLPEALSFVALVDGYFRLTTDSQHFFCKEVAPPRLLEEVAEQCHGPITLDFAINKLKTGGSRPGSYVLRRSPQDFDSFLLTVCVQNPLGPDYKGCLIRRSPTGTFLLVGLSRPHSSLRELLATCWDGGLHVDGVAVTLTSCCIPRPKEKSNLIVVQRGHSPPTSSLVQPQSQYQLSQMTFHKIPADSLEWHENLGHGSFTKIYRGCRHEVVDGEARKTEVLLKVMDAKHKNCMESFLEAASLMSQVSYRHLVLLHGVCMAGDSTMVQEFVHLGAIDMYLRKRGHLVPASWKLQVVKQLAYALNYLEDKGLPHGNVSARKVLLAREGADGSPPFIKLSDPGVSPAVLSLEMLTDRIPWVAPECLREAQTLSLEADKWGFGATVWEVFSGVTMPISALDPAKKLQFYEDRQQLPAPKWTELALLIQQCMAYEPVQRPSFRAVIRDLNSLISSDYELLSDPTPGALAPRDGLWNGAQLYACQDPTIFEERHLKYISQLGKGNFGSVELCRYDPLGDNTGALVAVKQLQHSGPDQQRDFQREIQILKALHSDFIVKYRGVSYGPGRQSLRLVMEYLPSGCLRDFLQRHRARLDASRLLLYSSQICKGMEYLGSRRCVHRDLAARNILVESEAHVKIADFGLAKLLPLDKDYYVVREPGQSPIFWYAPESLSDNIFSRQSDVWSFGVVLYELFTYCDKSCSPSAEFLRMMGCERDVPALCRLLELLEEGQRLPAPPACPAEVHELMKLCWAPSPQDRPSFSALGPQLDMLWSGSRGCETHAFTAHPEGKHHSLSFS
The series is described as follows: Inhibition of human recombinant GST-tagged JAK3 catalytic domain (781 to 1124 residues) expressed in baculovirus expression system by Z'-lyte assay.

Series [10] deals with Non-receptor tyrosine-protein kinase TYK2 (Homo sapiens, UniProt P29597). Kind of series: Inhibition of human recombinant N-terminal GST-tagged TYK2 (833 to 1187 residues) expressed in baculovirus expression system by Z'-lyte assay.
Non-receptor tyrosine-protein kinase TYK2, sequence (P29597 whole entry, the tested form may be a part): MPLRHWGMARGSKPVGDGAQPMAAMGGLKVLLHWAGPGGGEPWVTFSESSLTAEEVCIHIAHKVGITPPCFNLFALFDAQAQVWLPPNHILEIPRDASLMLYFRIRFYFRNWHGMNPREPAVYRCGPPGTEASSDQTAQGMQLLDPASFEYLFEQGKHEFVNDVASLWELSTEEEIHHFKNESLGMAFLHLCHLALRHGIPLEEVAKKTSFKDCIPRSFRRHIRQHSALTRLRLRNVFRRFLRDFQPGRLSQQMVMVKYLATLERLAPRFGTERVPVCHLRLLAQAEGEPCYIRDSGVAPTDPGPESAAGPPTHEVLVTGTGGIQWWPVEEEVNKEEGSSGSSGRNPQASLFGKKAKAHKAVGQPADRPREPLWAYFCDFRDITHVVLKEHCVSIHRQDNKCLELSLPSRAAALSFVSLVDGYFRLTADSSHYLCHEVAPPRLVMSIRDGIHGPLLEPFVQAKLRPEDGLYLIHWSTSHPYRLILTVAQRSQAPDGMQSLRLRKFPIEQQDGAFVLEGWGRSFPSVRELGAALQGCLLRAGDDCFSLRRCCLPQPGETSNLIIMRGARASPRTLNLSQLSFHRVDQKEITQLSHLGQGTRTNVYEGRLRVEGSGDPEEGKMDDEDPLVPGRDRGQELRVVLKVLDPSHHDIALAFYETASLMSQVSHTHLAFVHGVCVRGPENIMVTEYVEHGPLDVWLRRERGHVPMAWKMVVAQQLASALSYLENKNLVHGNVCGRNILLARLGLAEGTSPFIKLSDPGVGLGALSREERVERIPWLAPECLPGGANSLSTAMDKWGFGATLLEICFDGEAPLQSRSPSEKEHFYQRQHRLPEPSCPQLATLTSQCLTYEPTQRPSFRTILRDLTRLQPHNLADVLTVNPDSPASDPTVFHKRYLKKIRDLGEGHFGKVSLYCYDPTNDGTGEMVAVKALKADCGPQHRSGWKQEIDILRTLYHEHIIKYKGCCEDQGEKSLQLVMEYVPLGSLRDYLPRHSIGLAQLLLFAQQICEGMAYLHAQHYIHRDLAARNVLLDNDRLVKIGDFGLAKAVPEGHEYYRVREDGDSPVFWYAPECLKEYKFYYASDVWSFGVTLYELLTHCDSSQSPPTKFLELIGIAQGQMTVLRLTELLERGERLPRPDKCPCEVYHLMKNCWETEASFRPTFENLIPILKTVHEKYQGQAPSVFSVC
Series [11] has as its target T1, JAK3/JAK1. The series is described as follows: Inhibition of JAK1/JAK3 signaling pathway in human primary T-cells assessed as reduction of IL-2 induced cell proliferation. It counts as cell-based.
The target of the next series is JAK1/TYK2 (Homo sapiens, UniProt P23458+P29597). The series is described as follows: Inhibition of JAK1/TYK2 signaling pathway in human primary T-cells assessed as reduction of IFN-alpha induced STAT1 phosphorylation. Format: cell-based, T-cell.
JAK1/TYK2, sequence (P23458 whole entry): as the sequence (P23458 whole entry, one chain of several) above
JAK1/TYK2, sequence (P29597 whole entry): as the sequence (P29597 whole entry, the tested form may be a part) above
Series [12] addresses T2, Tyrosine-protein kinase JAK2. The series is described as follows: Inhibition of JAK2 signaling pathway in human UKE-1 cells assessed as reduction of cell proliferation. Format: toxicity, cell-based.
The next series deals with JAK2/TYK2 (Homo sapiens, UniProt O60674+P29597). The series is described as follows: Inhibition of JAK2/TYK2 signaling pathway in human primary T-cells assessed as reduction of IL-12 induced STAT4 phosphorylation. It counts as cell-based, T-cell.
JAK2/TYK2, sequence (O60674 whole entry): as the sequence (O60674 whole entry) above
JAK2/TYK2, sequence (P29597 whole entry): as the sequence (P29597 whole entry, the tested form may be a part) above
Another series has as its target JAK2/JAK1 (Homo sapiens, UniProt O60674+P23458). Kind of series: Inhibition of JAK1/JAK2 signaling pathway in human U-937 cells assessed as reduction of IFN-gamma induced ICAM1 expression. It counts as cell-based.
A short description of series [13]: Inhibition of IL-2 stimulated IFN-gamma production in BALB/c mouse at 20 mg/kg, po pretreated for 30 mins followed by IL-2 stimulation and measured after 4 hrs by ELISA. It counts as functional. The note with it: time 4.5 hrs.
A short description of series [14]: Inhibition of IL-2 stimulated IFN-gamma production in BALB/c mouse at 10 mg/kg, po pretreated for 30 mins followed by IL-2 stimulation and measured after 4 hrs by ELISA. Format: functional. The note with it: time 4.5 hrs.
Series [15] in a line: Inhibition of IL-2 stimulated IFN-gamma production in BALB/c mouse at 2.5 mg/kg, po pretreated for 30 mins followed by IL-2 stimulation and measured after 4 hrs by ELISA. It counts as functional. The note with it: time 4.5 hrs.
Series [16] is described as follows: Oral bioavailability in Sprague-Dawley rat 5 mg/kg. Format: ADME, organism-based. The note with it: in vivo.
Series [17] in a line: Clearance in Sprague-Dawley rat 1 mg/kg, iv. It counts as ADME, organism-based. The note with it: in vivo.
The target in series [18] is T1, JAK3/JAK1. Kind of series: Inhibition of JAK1/JAK3 signaling pathway in human whole blood assessed as reduction of IL-2 induced STAT5 phosphorylation. Format: tissue-based.

Molecules are shown by their SMILES.

JAK2/JAK1, sequence (P23458 whole entry): as the sequence (P23458 whole entry, one chain of several) above
JAK2/JAK1, sequence (O60674 whole entry): as the sequence (O60674 whole entry) above

Broadly, the IC50 is the midpoint of a concentration-inhibition curve. As a reminder, the inhibition in vivo is how much of the control response was suppressed. As usually defined, the Ki is the dissociation constant of the complex between target and ligand, obtained from inhibition or displacement. A high value points to a looser hold on the target. By bioavailability is commonly meant dose-corrected exposure relative to a reference, in per cent. As usually defined, the clearance is a measure of how efficiently the substance is removed, as volume per time. Consider `COc1cc(Nc2ncc(C)c(Nc3ccc4oc(=O)[nH]c4c3)n2)cc(C)c1F` [IFIDANCITINIB], for which the IC50 was 20 nM at JAK3/JAK1 [1]; 490 nM in [3]; over 10000 nM against Cytochrome P450 3A4 [5]; over 10000 nM on Cytochrome P450 3A4 [6]; 2.1 nM in series [7]; 12 nM in [8]. For the same molecule, the IC50 was found to be 923 nM in [9]; 12 nM in series [10]; 20 nM on JAK3/JAK1 [11]; 8 nM on JAK1/TYK2; 915 nM in [12]; 1190 nM at JAK2/TYK2. Moreover, the figures for the IC50 at JAK2/JAK1 and on JAK3/JAK1 [18] were 417 nM and 451 nM, respectively. In addition, the inhibition in vivo at 40 mg/kg in [2] is 92%. Further, the inhibition in vivo at 5 mg/kg in series [4] was 43%. For the same molecule, the Ki at Cytochrome P450 1A2 came out at 1000 nM. The inhibition in vivo at 20 mg/kg in series [13] amounted to 94%. Besides, the inhibition in vivo at 10 mg/kg in series [14] worked out at 75%. The inhibition in vivo at 2.5 mg/kg in series [15] came out at 8%. This molecule also had a bioavailability in series [16] of 28%. This molecule also displayed a clearance in series [17] of 47 mL/min/kg.
